For test [1], the system named is IL-23p19. Put plainly: LPS induced IL23p19 in THP-1 cells (with IFNγ primed) assay. In kind it is cell-based, Human. The settings on record: THP-1 cells, IFNγ primed, LPS 1 ug/mL, 18 hours, 10 pt, read-out: IL23-p19 ELISA, THP1-IFNy, LPS, 10 pt EC50. In a few lines: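 Readout is secreted IL-23p19, quantified by chemiluminescent sandwich ELISA after 18 h LPS (1 ug/mL) stimulation of THP-1 cells that had been IFNγ-primed (50 ng/mL, ~18 h) and given compound 1 h beforehand at 37 °C. EC50 derived by curve fit; cytotoxicity tracked with Cell Titer Glo.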

For test [2], the system named is IL-23 (p19/p40). Put plainly: IL23-p19 ELISA, Dendritic, LPS (compound screening using DC cells). It is filed as cell-based, Human. The settings on record: PBMC-derived DC cells, IFNγ primed, LPS 1 μg/ml, 18 hours, 10 pt, read-out: IL23-p19 ELISA, Dendritic, LPS, 10 pt, EC50. Here is the method:
Compound Screening Using DC Cells
Human PBMC cells (400 million) obtained from the vendor were transferred into a T-175 flask containing 15 ml RPMI media (10% FBS) and incubate for 2 hours at 37° C. After 2 hours, the media including floating cells was aspirated out carefully and 12 ml of fresh RPMI media (10% FBS) containing GMCSF (100 ng/ml) and IL4 (20 ng/ml) was added, and the flask was kept in a 37° C. incubator for 7 days.
After 3 days, fresh GMCSF (100 ng/ml) and IL4 (20 ng/ml) were added to the flask and the incubation continued. After 7 days, the fully differentiated cells were harvested by spinning down (1200 rpm/5 min) and aspirating the media. The cells were suspended in fresh RPMI media (10% FBS) containing 50 ng/ml IFNγ (1000 U/ml) and then plated (50K/well in 100 μl) onto a white clear bottom 96 well plate and left in a 37° C. incubator for 24 hours.
After 24 hours incubation, 100 μl of RPMI media was added containing 2× concentrated test compound per well to the above cell-culture media (final concentration becomes 1×) and the plates were pre-incubated for 1 hour at 37° C. before stimulating with LPS.
After 1 hour compound pre-incubation, 10 piper well of 20× concentrated LPS solution in RPMI media was added to give a final concentration of 1 μg/ml. The mixture was shaken and incubated the plates at 37° C. for an additional 18 hours.
155 μl of the supernatant was harvested from each well carefully (without the tip touching the bottom of the well) and to the remaining 50 μl/well of the cell culture plate was added 50 μl of Cell Titer Glo reagent. The mixture was incubated for 1-2 minutes on a shaker and the plate was read for luminescence intensity to determine the compound cytotoxicity. The cell culture supernatant collected above was used to carry out IL23 ELISA (65 μl -Supernatant) and IL10 ELISA (90 μl—Supernatant) as described below.
Human IL-23 (p19/p40) ELISA Protocol (e-Biosciences)
To 10.5 ml PBS add 50 μl of anti-IL23 (p19) was added capture antibody (2.5 μg/ml). The mixture was mixed well and 100 μl of the coating solution was added to each well of the 96 well white plates from Pierce. The wells were covered and incubated overnight at 4° C.
The anti-IL23 (p19)-antibody-coated plates were washed 2× using TBST (use plate washer) and blocked using 200 μl of 0.5% Casein for 1.5-2 hours at room temperature with shaking.
The plates were washed 2× using TBST and the supernatant was transferred (65 μl/well) to the above pre-blocked/IL23(p19)-antibody-coated 96 well plate, and incubated at room temperature for 1.5 hours with shaking.
The plates were washed 4× using TBST (plate washer) and 100 μl/well detection antibody solution prepared from 2 μl of biotin labeled anti-IL-12 (p40/p70) antibody in 11 ml 1% BSA/PBS solution (1-5000 dilution) was added. The plates were incubated for 1 hour with shaking at Room temperature.
Again, the plates were washed 4× with TBST and 100 μl of HRP labeled Streptavidin (R&D Systems) solution (10 μl/10 ml 1% BSA solution) was added, and the plates were incubated at room temperature for another 45 minutes with shaking.
After 45 minutes, the plates were washed with TBST 4× and 100 ul/well Super Signal ELISA Pico Chemiluminescent Substrate from Pierce (3.5 ml A+3.5 ml B+3.5 ml MQ water) was added. The plates were shaken for 1-2 minutes then read on a plate reader.

Structures can show the parent of a compound that is named as a salt. Where two headings read alike, the source gives them in different places.

For `O=C(Nc1cn(C2COC2)nc1-c1ccccn1)c1csc(-c2cn[nH]c2)n1` [II-34, N-(1-(oxetan-3-yl)-3-(pyridin-2-yl)-1H-pyrazol-4-yl)-2-(1H-pyrazol-4-yl)thiazole-4-carboxamide], the concentration for a half-maximal effect (EC50) in test [1] (Homo sapiens, THP-1, 18 h) was 86.1 nM; in test [2] (Homo sapiens, 18 h), 55.7 nM.

For `O=C(Nc1cn(C2COC2)nc1-c1ccccn1)c1ccc(-c2cn[nH]c2)o1` [Compound I-25, N-(1-(oxetan-3-yl)-3-(pyridin-2-yl)-1H-pyrazol-4-yl)-5-(1H-pyrazol-4-yl)furan-2-carboxamide], the EC50 in test [1] (Homo sapiens, THP-1, 18 h) was 57.1 nM; in test [2] (Homo sapiens, 18 h) it was 44.1 nM.

Regarding `COCCn1cc(NC(=O)c2ccc(-c3cn[nH]c3)o2)c(-c2ncccn2)n1` [Compound I-7, N-(1-(2-methoxyethyl)-3-(pyrimidin-2-yl)-1H-pyrazol-4-yl)-5-(1H-pyrazol-4-yl)furan-2-carboxamide], the EC50 in test [1] (Homo sapiens, THP-1, 18 h) is 433 nM; in test [2] (Homo sapiens, 18 h), 399 nM.

`CCO[C@H]1C[C@@H](n2cc(NC(=O)c3csc(-c4cnn(COP(=O)(O)O)c4)n3)c(-c3ccccn3)n2)C1` [II-84, (4-(4-((1-((1,3-cis)-3-ethoxycyclobutyl)-3-(pyridin-2-yl)-1H-pyrazol-4-yl)carbamoyl)thiazol-2-yl)-1H-pyrazol-1-yl)methyl phosphate Tris salt]: the figures for the EC50 in test [1] and in test [2] were 85 nM and 304 nM, respectively.

For `[2H]C([2H])([2H])C([2H])([2H])O[C@H]1C[C@@H](n2cc(NC(=O)c3csc(-c4cn[nH]c4)n3)c(-c3ccccn3)n2)C1` [II-127, N-(1-((1s,3s)-3-(ethoxy-d5)cyclobutyl)-3-(pyridin-2-yl)-1H-pyrazol-4-yl)-2-(1H-pyrazol-4-yl)thiazole-4-carboxamide], the EC50 in test [1] (Homo sapiens, THP-1, 18 h) was 48.7 nM; in test [2] (Homo sapiens, 18 h), 81 nM.

Turning to `COc1ccc(-c2nn(C)cc2NC(=O)c2csc(-c3cn[nH]c3)n2)nc1` [II-58, N-(3-(5-methoxypyridin-2-yl)-1-methyl-1H-pyrazol-4-yl)-2-(1H-pyrazol-4-yl)thiazole-4-carboxamide], the EC50 in test [1] (Homo sapiens, THP-1, 18 h) amounted to 130 nM; in test [2] (Homo sapiens, 18 h), 112 nM.

Regarding `CCO[C@H]1C[C@@H](n2cc(NC(=O)c3csc(-c4cnn(COP(=O)(O)O)c4)n3)c(-c3ccccn3)n2)C1` [II-77, (4-(4-((1-((1,3-cis)-3-ethoxycyclobutyl)-3-(pyridin-2-yl)-1H-pyrazol-4-yl)carbamoyl)thiazol-2-yl)-1H-pyrazol-1-yl)methyl phosphate bis-potassium salt], the EC50 in test [1] (phosphate bis-potassium salt) turned out to be 147 nM; in test [2] (phosphate bis-potassium salt), 146 nM.

In the case of `CC(C)NC(=O)N1CC(n2cc(NC(=O)c3ccc(-c4cn[nH]c4)o3)c(-c3ccccn3)n2)C1` [Compound I-85, 3-[4-{5-(1H-Pyrazol-4-yl)furan-2-carboxamido}-3-(pyridine-2-yl)-1H-pyrazol-1-yl]-N-isopropylazetidine-1-carboxamide, free base], the EC50 in test [1] (Homo sapiens, THP-1, 18 h) stood at 76.7 nM; in test [2] (Homo sapiens, 18 h) it was 19.6 nM.

For `CCOCCn1cc(NC(=O)c2ccc(-c3cn[nH]c3)o2)c(-c2nccs2)n1` [Compound I-118, N-(1-(2-ethoxyethyl)-3-(thiazol-2-yl)-1H-pyrazol-4-yl)-5-(1H-pyrazol-4-yl)furan-2-carboxamide formate], the EC50 was 68.1 nM in test [1] (formate) and 161 nM in test [2] (formate).

For `CCO[C@H]1CC[C@H](n2cc(NC(=O)c3csc(-c4cn[nH]c4)n3)c(-c3nnco3)n2)CC1` [II-178, N-(1-((1r,4r)-4-ethoxycyclohexyl)-3-(1,3,4-oxadiazol-2-yl)-1H-pyrazol-4-yl)-2-(1H-pyrazol-4-yl)thiazole-4-carboxamide], the concentration giving a half-maximal response (EC50) in test [1] (Homo sapiens, THP-1, 18 h) was found to be 119 nM; in test [2] (Homo sapiens, 18 h), 37.3 nM.

On to `O=C(Nc1cn([C@H]2C[C@@H](OCC(F)(F)F)C2)nc1-c1cccc(F)n1)c1ccc(-c2cn[nH]c2)o1` [Compound I-150, N-(3-(6-fluoropyridin-2-yl)-1-((1s,3s)-3-(2,2,2-trifluoroethoxy)cyclobutyl)-1H-pyrazol-4-yl)-5-(1H-pyrazol-4-yl)furan-2-carboxamide formate], for which the EC50 in test [1] (Homo sapiens, THP-1, 18 h) turned out to be 64.8 nM; in test [2] (Homo sapiens, 18 h) it was 226 nM.

In the case of `Cn1cc(NC(=O)c2csc(-c3cnn(C(=O)OC4(C)CC4)c3)n2)c(-c2ccccn2)n1` [II-5, 1-methylcyclopropyl 4-(4-((1-methyl-3-(pyridin-2-yl)-1H-pyrazol-4-yl)carbamoyl)thiazol-2-yl)-1H-pyrazole-1-carboxylate], the EC50 in test [1] (Homo sapiens, THP-1, 18 h) turned out to be 90.2 nM; in test [2] (Homo sapiens, 18 h), 157 nM.

For `CCOCCn1cc(NC(=O)c2coc(-c3cn[nH]c3)n2)c(-c2ccccn2)n1` [III-3, N-(1-(2-ethoxyethyl)-3-(pyridin-2-yl)-1H-pyrazol-4-yl)-2-(1H-pyrazol-4-yl)oxazole-4-carboxamide], the half-maximal effective concentration (EC50) in test [1] (Homo sapiens, THP-1, 18 h) worked out at 243 nM; in test [2] (Homo sapiens, 18 h), 170 nM.

`O=C(Nc1cn([C@H]2C[C@@H](O)C2)nc1-c1cnccn1)c1csc(-c2cn[nH]c2)n1` [II-101, N-(1-((1,3-cis)-3-hydroxycyclobutyl)-3-(pyrazin-2-yl)-1H-pyrazol-4-yl)-2-(1H-pyrazol-4-yl)thiazole-4-carboxamide]: the EC50 turned out to be 23 nM in test [1] (Homo sapiens, THP-1, 18 h) and 35.5 nM in test [2] (Homo sapiens, 18 h).

As to `CCO[C@@H]1C[C@H](n2cc(NC(=O)c3csc(-c4cn[nH]c4)n3)c(-c3ccccn3)n2)C1F` (stereo partly drawn) [II-155, N-(1-((cis)-3-ethoxy-2-fluorocyclobutyl)-3-(pyridin-2-yl)-1H-pyrazol-4-yl)-2-(1H-pyrazol-4-yl)thiazole-4-carboxamide], the EC50 in test [1] (Homo sapiens, THP-1, 18 h) was 399 nM; in test [2] (Homo sapiens, 18 h) it was 61.2 nM.

As for `CC(C)(C)OC(=O)N1CC(n2cc(NC(=O)c3ccc(-c4cn[nH]c4)o3)c(-c3ccccn3)n2)C1` [Compound I-74, tert-Butyl-3-[4-{5-(1H-pyrazole-4-yl)furan-2-carboxamido}-3-(pyridine-2-yl)-1H-pyrazol-1-yl]azetidine-1-carboxylate], the EC50 in test [1] came out at 151 nM; in test [2], 131 nM.

Consider `CCOCCn1cc(NC(=O)c2csc(-c3cn[nH]c3)n2)c(-c2nccs2)n1` [II-109, N-(1-(2-ethoxyethyl)-3-(thiazol-2-yl)-1H-pyrazol-4-yl)-2-(1H-pyrazol-4-yl)thiazole-4-carboxamide], for which the EC50 in test [1] (Homo sapiens, THP-1, 18 h) was determined as 140 nM; in test [2] (Homo sapiens, 18 h) it was 327 nM.

In the case of `CCO[C@H]1C[C@@H](n2cc(NC(=O)c3ccc(-c4cn[nH]c4)o3)c(-c3ncccc3F)n2)C1` [Compound I-142, N-(1-((1s,3s)-3-ethoxycyclobutyl)-3-(3-fluoropyridin-2-yl)-1H-pyrazol-4-yl)-5-(1H-pyrazol-4-yl)furan-2-carboxamide formate], the EC50 in test [1] (Homo sapiens, THP-1, 18 h) was determined as 68.9 nM; in test [2] (Homo sapiens, 18 h), 26.2 nM.

These data come from patent US10208074B2, “Pyrazole compounds and method for making and using the compounds” (Rigel Pharmaceuticals, Inc., priority 2015, dated 2019).
